Here are results for two compounds from patent US9060537B2, “Method for enhancing rebaudioside D solubility in water” (PEPSICO, INC., priority 2012, dated 2015).

Data set [1] is described as follows: Modified Reb D solubility in water. The format is physicochemical.
The conditions of data set [2]: co-crystallization of quercetin with caffeine, mass ratio 2:1; cited from earlier work.
The conditions of data set [3]: co-crystallization of quercetin with caffeine, mass ratio 2:1; cited from earlier work. The source holds these as a separate data set.

Take `C=C1C[C@@]23CC[C@H]4[C@@](C)(CCC[C@@]4(C)C(=O)O[C@@H]4O[C@H](CO)[C@@H](O)[C@H](O)[C@H]4O[C@@H]4O[C@H](CO)[C@@H](O)[C@H](O)[C@H]4O)[C@@H]2CC[C@]1(O[C@@H]1O[C@H](CO)[C@@H](O)[C@H](O[C@@H]2O[C@H](CO)[C@@H](O)[C@H](O)[C@H]2O)[C@H]1O[C@@H]1O[C@H](CO)[C@@H](O)[C@H](O)[C@H]1O)C3` [Control, Rebaudioside D]: the “Solubility (23° C.) (ppm)” value in data set [1] (in water, 23° C.) is recorded as 350 ppm. The “solubility of the Reb D after spray drying the clear Reb D solution to a fine powder” value in data set [1] (spray dried without enhancer or stabilizer) was 1500 ppm. In addition, the solubility in water in data set [1] (water at 23° C. / room temperature, untreated Reb D or powders as worded) was 300 ppm. Moreover, the “maximum solubility in heated water” value in data set [1] (water heated above 70° C., typically 80 to 100° C.) worked out at 2.5 wt %.
Take `O=c1c(O)c(-c2ccc(O)c(O)c2)oc2cc(O)cc(O)c12` [quercetin]: in data set [2], the solubility increase was 14 fold. Also, the bioavailability increase in data set [3] is 10 fold.
